“Also recorded” adds a separate entry of the source. Each block holds one compound with its values, some of them ahead of it. Residues, ends and D or L forms follow the SMILES beside them.
Tests used:
[1] = ref Cummings et al., 1994; cited from earlier work
Source text: (§1) British Journal of Cancer (1996) 73, 715-720 ? 1996 Stockton Press All rights reserved 0007-0920/96 $12.00 % Metabolism of the broad-spectrum neuropeptide growth factor antagonist: ID-Arg1, D-Phe5, D-Trp7'9, Leull"-substance P DA Jones', J Cummings', SP Langdon', AJ Maclellan', T Higgins2, E Rozengurt2 and JF Smyth' 'Imperial Cancer Research Fund, Medical Oncology Unit, Western General Hospital, Edinburgh EH4 2XU; 2Imperial Cancer Research Fund, PO Box 123, Lincoln's Inn Fields, London WC2A 3PX, UK. Summary Broad-spectrum neuropeptide growth factor antagonists, such as [D-Arg', D-Phe5, D-Trp7' ...

[2] = Stability of antagonist D and antagonist G in 1% (w/v) mouse liver homogenate; assay type: in vitro ADME; conditions: for amount of antagonist remaining after 1 h of incubation: 50 nmol in 1.0 ml 1% w/v mouse liver homogenate in PBS pH 7.4, 37°C, HPLC with fluorescence detection, corrected for extraction efficiency (94.4% D, 94% G), three experiments; for amount of metabolite accumulated after 1 h: from 50 nmol parent antagonist in 1% mouse liver homogenate, PBS pH 7.4, 37°C, HPLC fluorescence, extraction efficiency 94.4% (D metabolites), 94% (G metabolites) assumed, mean of three experiments
Source text: British Journal of Cancer (1996) 73, 715-720 ? 1996 Stockton Press All rights reserved 0007-0920/96 $12.00 % Metabolism of the broad-spectrum neuropeptide growth factor antagonist: ID-Arg1, D-Phe5, D-Trp7'9, Leull"-substance P DA Jones', J Cummings', SP Langdon', AJ Maclellan', T Higgins2, E Rozengurt2 and JF Smyth' 'Imperial Cancer Research Fund, Medical Oncology Unit, Western General Hospital, Edinburgh EH4 2XU; 2Imperial Cancer Research Fund, PO Box 123, Lincoln's Inn Fields, London WC2A 3PX, UK. Summary Broad-spectrum neuropeptide growth factor antagonists, such as [D-Arg', D-Phe5, D-Trp7'9, Leu']substance P (antagonist D) and [Arg6, D-Trp7'9, NmePhe8]substance p(6- 11) (antagonist G), are currently being investigated as possible anti-tumour agents. […] Keywords: broad spectrum; neuropeptide; antagonist; metabolism Successful, long-term treatment of small-cell lung cancer (SCLC) remains a major therapeutic problem. […] The disease is characterised by its ability to secrete and to be growth stimulated by a variety of neuropeptide growth factors that include bombesin/gastrin- releasing peptide (GRP), vasopressin, bradykinin, cholecys- tokinin and neurotensin (Woll and Rozengut, 1989). […] These agents include [D- Arg'-D-Phe5-D-Trp7'9-Leu' 1]-substance P and [Arg6-D-Trp7'9- NmePhe8]-substance P(6-11) (code named antagonists D and G respectively) (Sethi et al., 1992). […] In the near future antagonist G will be the first of this new class of compound, broad- spectrum neuropeptide growth factor antagonists, to enter a phase I clinical trial for the potential treatment of SCLC. […] The research reported here describes the characterisation of the in vitro metabolism of antagonist D, comparing its metabolic stability to that of antagonist G, which we have previously reported (Jones et al., 1995). […] Materials and methods Antagonist D was purchased from Peninsula Laboratories (St Helens, UK), Antagonist G was supplied by Peptech (Europe) (Copenhagen, Denmark). H-D-Arg-Pro-Lys-Pro-D- Phe-Gln-D-Trp-Phe-D-Trp-Leu-Leu-OH (metabolite 1) and H-D-Arg-Pro-Lys-Pro-D-Phe-Gln-D-Trp-Phe-D-Trp-Leu-OH (metabolite 2) were prepared in-house using conventional Fmoc solid-phase peptide synthesis procediures. Reagents for peptide synthesis were purchased from NovaBiochem (UK) (Nottingham, UK). Acetic acid and ammonium acetate were from BDH Chemicals (Poole, UK). Methanol and acetoni- trile were high-performance liquid chromatography (HPLC) grade from Rathburn Chemicals (Walkerburn, UK). Tri- fluoroacetic acid was from Sigma Chemical (Poole, UK). All other chemicals Were of the highest grade commercially available and used without further purification. Water was deionised and bidistilled in a quartz glass still. HPLC The HPLC system used consisted of two 510 HPLC pumps, a 712 WISP autosampler, a TCM column heater (all Waters, Northwich, UK) and a model 1046A fluorescence detector (Hewlett Packard, Walborn, Germany). A Waters MAXIMA 820 computer package was used with a Waters system interface module to control the system operation and collect and integrate data. Separation was achieved on a Prime- sphere 5 gm (250 x 4.6 mm) column (Phenomenex, Maccles- field, UK) using isocratic elution with 45% (v/v) acetonitrile in 0.1% (v/v) aqueous triflouroacetic acid (TFA) at 450C. Detection of the peptides was by fluorescence (Excitation 233 nm Emission 395 nm).

SCLC cells = conditions: ref Woll and Rozengurt, 1988; cited from earlier work
Source text: as §1

[3] = system: non-SCLC, ovarian and cervical cancer cell lines; conditions: ref Everard et al., 1992; cited from earlier work
Source text: as §1

[4] = system: SCLC xenografts (WX322 and H69); conditions: WX322 and H69 xenografts in nude mice; ref Langdon et al., 1992; cited from earlier work
Source text: as §1

[5] = system: SCLC and non-SCLC cell lines; conditions: SCLC and non-SCLC cell lines in vitro; ref Reeve and Bleehan, 1994; cited from earlier work
Source text: as §1

[6] = system: SCLC xenografts (HC12 and ICR-SC112); conditions: ref Everard et al., 1993; cited from earlier work
Source text: as §1

[7] = system: Swiss 3T3 cells stimulated by vasopressin; experiment: [3H]thymidine uptake by Swiss 3T3 cells after mitogenic stimulation by vasopressin; assay type: cell-based, murine; conditions: vasopressin 1 nM, 40 h, mean of duplicate samples
[8] = system: Swiss 3T3 cells stimulated by bradykinin; experiment: [3H]thymidine uptake by Swiss 3T3 cells after mitogenic stimulation by bradykinin; assay type: cell-based, murine; conditions: bradykinin 1 nM, insulin 1 µg/ml, 40 h, mean of duplicate samples
[9] = system: Swiss 3T3 cells stimulated by bombesin; experiment: [3H]thymidine uptake by Swiss 3T3 cells after mitogenic stimulation by bombesin; assay type: cell-based, murine; conditions: bombesin 1 nM, insulin 1 µg/ml, 40 h, mean of duplicate samples
[10] = 1% (w/v) mouse liver homogenate in PBS (pH 7.4); conditions: 37?C, up to 1 h
[11] = 2% w/v mouse liver homogenate in PBS (pH 7.4); conditions: 37?C, up to 2 h
human plasma = conditions: cited from earlier work

amount of metabolite accumulated after 1 h [2]: 9.6 nmol
Compound: CC(C)C[C@H](NC(=O)[C@H](CC(C)C)NC(=O)[C@@H](Cc1c[nH]c2ccccc12)NC(=O)[C@H](Cc1ccccc1)NC(=O)[C@@H](Cc1c[nH]c2ccccc12)NC(=O)[C@H](CCC(N)=O)NC(=O)[C@@H](Cc1ccccc1)NC(=O)[C@@H]1CCCN1C(=O)[C@H](CCCCN)NC(=O)[C@@H]1CCCN1C(=O)[C@H](N)CCCNC(=N)N)C(=O)O [metabolite 1, H-D-Arg-Pro-Lys-Pro-D-Phe-Gln-D-Trp-Phe-D-Trp-Leu-Leu-OH] (HELM PEPTIDE1{[dR].P.K.P.[dF].Q.[dW].F.[dW].L.L}$$$$V2.0)
antagonist activity with respect to bradykinin (inhibition of [3H]thymidine uptake) [8]: retained none of the antagonist properties
vasopressin antagonist activity (inhibition of [3H]thymidine uptake) ([7]; insulin 1 µg/ml): inactive
antagonist activity with respect to bombesin (inhibition of [3H]thymidine uptake) [9]: retained none of the antagonist properties

amount of metabolite accumulated after 1 h [2]: 12.3 nmol
Compound: CC(C)C[C@H](NC(=O)[C@@H](Cc1c[nH]c2ccccc12)NC(=O)[C@H](Cc1ccccc1)NC(=O)[C@@H](Cc1c[nH]c2ccccc12)NC(=O)[C@H](CCC(N)=O)NC(=O)[C@@H](Cc1ccccc1)NC(=O)[C@@H]1CCCN1C(=O)[C@H](CCCCN)NC(=O)[C@@H]1CCCN1C(=O)[C@H](N)CCCNC(=N)N)C(=O)O [metabolite 2, H-D-Arg-Pro-Lys-Pro-D-Phe-Gln-D-Trp-Phe-D-Trp-Leu-OH] (HELM PEPTIDE1{[dR].P.K.P.[dF].Q.[dW].F.[dW].L}$$$$V2.0)
antagonist activity with respect to bradykinin (inhibition of [3H]thymidine uptake) [8]: retained none of the antagonist properties
antagonist activity with respect to bombesin (inhibition of [3H]thymidine uptake) [9]: retained none of the antagonist properties

The remaining lines, values behind:

Compound: CC(C)C[C@H](NC(=O)[C@H](CC(C)C)NC(=O)[C@@H](Cc1c[nH]c2ccccc12)NC(=O)[C@H](Cc1ccccc1)NC(=O)[C@@H](Cc1c[nH]c2ccccc12)NC(=O)[C@H](CCC(N)=O)NC(=O)[C@@H](Cc1ccccc1)NC(=O)[C@@H]1CCCN1C(=O)[C@H](CCCCN)NC(=O)[C@@H]1CCCN1C(=O)[C@H](N)CCCN=C(N)N)C(N)=O [antagonist D, [D-Arg1, D-Phe5, D-Trp7,9, Leu11]substance P] (HELM PEPTIDE1{[dR].P.K.P.[dF].Q.[dW].F.[dW].L.L.[am]}$$$$V2.0)
stability in human plasma [1]: stable
amount of antagonist remaining after 1 h of incubation [2]: 30.8 nmol
stability relative to antagonist G ([2]; 1% mouse liver homogenate, 37°C (Figure 2)): almost twice as stable as antagonist G
rate of disappearance relative to antagonist G ([2]; over the first 30 min, 1% mouse liver homogenate, 37°C): half the rate of antagonist G

Compound: CC(C)C[C@H](NC(=O)[C@H](CC(C)C)NC(=O)[C@@H](Cc1c[nH]c2ccccc12)NC(=O)[C@H](Cc1ccccc1)NC(=O)[C@@H](Cc1c[nH]c2ccccc12)NC(=O)[C@H](CCC(N)=O)NC(=O)[C@@H](Cc1ccccc1)NC(=O)[C@@H]1CCCN1C(=O)[C@H](CCCCN)NC(=O)[C@@H]1CCCN1C(=O)[C@H](N)CCCNC(=N)N)C(N)=O [antagonist D, [D-Arg1, D-Phe5, D-Trp7,9, Leu11]substance P] (HELM PEPTIDE1{[dR].P.K.P.[dF].Q.[dW].F.[dW].L.L.[am]}$$$$V2.0)
potency against SCLC cells in vitro relative to antagonist G (SCLC cells): equipotent to antagonist G
in vitro activity against cancer cell lines [3]: activity
growth of SCLC xenografts [4]: inhibit the growth
induction of apoptosis [5]: induce apoptosis
activity against other SCLC xenografts in vivo [6]: activity
IC50 ([7]; [3H]thymidine uptake, read-out: IC50 value, vasopressin stimulated growth): < 1 µM

Compound: CSCC[C@H](NC(=O)[C@H](CC(C)C)NC(=O)[C@@H](Cc1c[nH]c2ccccc12)NC(=O)[C@H](Cc1ccccc1)N(C)C(=O)[C@@H](Cc1c[nH]c2ccccc12)NC(=O)[C@@H](N)CCCNC(=N)N)C(N)=O [antagonist G, [Arg6, D-Trp7,9, NmePhe8]substance P(6-11)] (HELM PEPTIDE1{R.[dW].[meF].[dW].L.M.[am]}$$$$V2.0)
growth of SCLC xenografts [4]: inhibit the growth
amount of antagonist remaining after 1 h of incubation [2]: 21.1 nmol

Compound: H-Arg-D-Trp-N"'Phe-D-Trp-Leu-Met-NH,
cleaved bond [10]: Met-NH2, major

Compound: H-D-Arg-Pro-Lys-Pro-D-Phe-GIn-D-Trp-Phe-D-Trp-Leu-Leu-NH2
cleaved bond [10]: Leu11-NH2, major; also recorded: Leu10-Leu11, major
cleaved bond [11]: Leu11-NH2, major; also recorded: Leu10-Leu11, major
not cleaved (human plasma): stable in human plasma

— article PMC2074379 (British Journal of Cancer, 1996)
